Patent US7709636B2, “Pyrazole sulfonylurea compound and herbicide” (Nissan Chemical Industries, Ltd., priority 2004, dated 2010)

Key:
[1] = tested on: Echinochloa crus-galli; test: Herbicidal effect test in submerged condition by treatment before weed-generation (1); format: in vivo; conditions: 0.64 g/a, water surface treated on day of sowing, 3 weeks after treatment
Text: (§1) Herbicidal Effect Test in Submerged Condition by Treatment Before Weed-Generation (1)
(§2) After alluvial soil was placed in a styrol cup of 1/30000 are, water was poured therein and mixed, and adjusted to a submerged condition of water depth 4 cm. After seeds of Echinochloa crus-galli, Scirpus juncoides and Monochoria vaginalis were sown in the cup, rice seedlings at 2.5th leaf stage were transplanted. On the day when the seeds were sown, the wettable powder of the present invention prepared according to Formulation Example 1 was diluted with water so as to give a predetermined formulation amount, and the surface of the water was treated with the diluted wettable powder. The plants were grown by putting the cup in a green house at 25 to 30° C., and investigated on herbicidal effect against each weed 3 weeks after treatment with the herbicide according to the following criteria.
(§3) 5 Herbicidal rate 90% or more (almost complete death)
(§4) 4 Herbicidal rate 70% or more and less than 90%
(§5) 3 Herbicidal rate 40% or more and less than 70%
(§6) 2 Herbicidal rate 20% or more and less than 40%
(§7) 1 Herbicidal rate 5% or more and less than 20%
(§8) 0 Herbicidal rate 5% or less (little effect)

[2] = tested on: Monochoria vaginalis; test: as above; format: in vivo; conditions: 0.64 g/a, water surface treated on day of sowing, 3 weeks after treatment
Text: as §1, §2, §3, §4, §5, §6, §7, §8

[3] = tested on: Scirpus juncoides; test: as above; format: in vivo; conditions: 0.64 g/a, water surface treated on day of sowing, 3 weeks after treatment
Text: as §1, §2, §3, §4, §5, §6, §7, §8

[4] = tested on: Echinochloa crus-galli; test: Herbicidal effect test in submerged condition by treatment during weed-growth stage (1); format: in vivo; conditions: 0.64 g/a, treated at 1st to 2nd leaf stage, 3 weeks after treatment
Procedure: (§9) Herbicidal Effect Test in Submerged Condition by Treatment During Weed-Growth Stage (1) After alluvial soil was placed in a styrol cup of 1/30000 are, water was poured therein and mixed, and adjusted to a submerged condition of water depth 4 cm. After seeds of Echinochloa crus-galli, Scirpus juncoides and Monochoria vaginalis were sown in the cup, the plants were grown by putting the cup in a green house at 25 to 30° C. When Echinochloa crus-galli, Scirpus juncoides and Monochoria vaginalis reached 1st to 2nd leaf stage, the wettable powder of the present invention prepared according to Formulation Example 1 was diluted with water so as to give a predetermined formulation amount, and the surface of the water was treated with the diluted wettable powder. The herbicidal effect for each plant was investigated 3 weeks after treatment with the herbicide according to the criteria indicated in Test Example 1.

[5] = tested on: Monochoria vaginalis; test: as above; format: in vivo; conditions: 0.64 g/a, treated at 1st to 2nd leaf stage, 3 weeks after treatment
Procedure: as §9

[6] = tested on: Scirpus juncoides; test: as above; format: in vivo; conditions: 0.64 g/a, treated at 1st to 2nd leaf stage, 3 weeks after treatment
Procedure: as §9

[7] = tested on: Abutilon avicennae; test: Herbicidal effect test by soil treatment; format: in vivo; conditions: 1.6 g/a, 3 weeks after treatment
Text: (§10) Herbicidal Effect Test by Soil Treatment
(§11) Sterilized diluvial soil was placed in a plastic box having a size of length 21 cm, width 13 cm and depth 7 cm, seeds Echinochloa crus-galli, Digitaria adscendes, Setaria viridis, Avena fatua, Black-grass, Abutilon avicennae, Ambrosia elatior, Amaranthus retroflexus, Chenopodium album, Polygonum blumei, Stellaria media, Zea mays (corn), Glycine max (soybean), Oryza sativa (rice), Triticum aestivum (wheat) and Beta vulgaris (beat) were sown interspatially, covered with about 1.5 cm of soil, and then the wettable powder of the present invention prepared according to Formulation Example 1 was diluted with water so as to give a predetermined formulation amount, and the surface of the soil was uniformly treated with the diluted wettable powder by use of a small-sized spray. The herbicidal effect for each plant was investigated 3 weeks after treatment with the herbicide according to the criteria indicated in Test Example 1.

[8] = tested on: Amaranthus retroflexus; test: Herbicidal effect test by soil treatment; format: in vivo; conditions: 1.6 g/a, 3 weeks after treatment
Text: as §10, §11

[9] = tested on: Ambrosia elatior; test: Herbicidal effect test by soil treatment; format: in vivo; conditions: 1.6 g/a, 3 weeks after treatment
Text: as §10, §11

[10] = tested on: Avena fatua; test: Herbicidal effect test by soil treatment; format: in vivo; conditions: 1.6 g/a, 3 weeks after treatment
Text: as §10, §11

[11] = tested on: Beta vulgaris (beet); test: Herbicidal effect test by soil treatment; format: in vivo; conditions: 1.6 g/a, 3 weeks after treatment
Text: as §10, §11

[12] = tested on: Black-grass; test: Herbicidal effect test by soil treatment; format: in vivo; conditions: 1.6 g/a, 3 weeks after treatment
Text: as §10, §11

[13] = tested on: Chenopodium album; test: Herbicidal effect test by soil treatment; format: in vivo; conditions: 1.6 g/a, 3 weeks after treatment
Text: as §10, §11

[14] = tested on: Digitaria adscendes; test: Herbicidal effect test by soil treatment; format: in vivo; conditions: 1.6 g/a, 3 weeks after treatment
Text: as §10, §11

[15] = tested on: Echinochloa crus-galli; test: Herbicidal effect test by soil treatment; format: in vivo; conditions: 1.6 g/a, 3 weeks after treatment
Text: as §10, §11

[16] = tested on: Polygonum blumei; test: Herbicidal effect test by soil treatment; format: in vivo; conditions: 1.6 g/a, 3 weeks after treatment
Text: as §10, §11

[17] = tested on: Setaria viridis; test: Herbicidal effect test by soil treatment; format: in vivo; conditions: 1.6 g/a, 3 weeks after treatment
Text: as §10, §11

[18] = tested on: Stellaria media; test: Herbicidal effect test by soil treatment; format: in vivo; conditions: 1.6 g/a, 3 weeks after treatment
Text: as §10, §11

[19] = tested on: Triticum aestivum (wheat); test: Herbicidal effect test by soil treatment; format: in vivo; conditions: 1.6 g/a, 3 weeks after treatment
Text: as §10, §11

[20] = tested on: corn (Zea mays); test: Herbicidal effect test by soil treatment; format: in vivo; conditions: 1.6 g/a, 3 weeks after treatment
Text: as §10, §11

[21] = tested on: soybean (Glycine max); test: Herbicidal effect test by soil treatment; format: in vivo; conditions: 1.6 g/a, 3 weeks after treatment
Text: as §10, §11

[22] = tested on: direct sown rice; test: Herbicidal effect test by soil treatment; format: in vivo, Oryza sativa; conditions: 1.6 g/a, 3 weeks after treatment
Text: as §10, §11

[23] = tested on: Abutilon avicennae; test: Herbicidal effect test by foliage treatment; format: in vivo; conditions: 1.6 g/a; foliage treatment after growth of 14 days; 3 weeks after treatment
Text: (§12) Herbicidal Effect Test by Foliage Treatment
(§13) Sterilized diluvial soil was placed in a plastic box having a size of length 21 cm, width 13 cm and depth 7 cm, seeds of Echinochloa crus-galli, Digitaria adscendes, Setaria viridis, Avena fatua, Black-grass, Abutilon avicennae, Ambrosia elatior, Amaranthus retroflexus, Chenopodium album, Polygonum blumei, Stellaria media, Zea mays, Glycine max, Oryza sativa, Triticum aestivum and Beta vulgaris were sown interspatially, covered with about 1.5 cm of soil, and then the plants were grown by putting the box in a green house at 25 to 30° C. After growth of 14 days, the wettable powder of the present invention prepared according to Formulation Example 1 was diluted with water so as to give a predetermined formulation amount, and the foliage part was uniformly treated with the diluted wettable powder by use of a small-sized spray. The herbicidal effect for each plant was investigated 3 weeks after treatment with the herbicide according to the criteria indicated in Test Example 1.

[24] = tested on: Amaranthus retroflexus; test: Herbicidal effect test by foliage treatment; format: in vivo; conditions: 1.6 g/a; foliage treatment after growth of 14 days; 3 weeks after treatment
Text: as §12, §13

[25] = tested on: Ambrosia elatior; test: Herbicidal effect test by foliage treatment; format: in vivo; conditions: 1.6 g/a; foliage treatment after growth of 14 days; 3 weeks after treatment
Text: as §12, §13

[26] = tested on: Avena fatua; test: Herbicidal effect test by foliage treatment; format: in vivo; conditions: 1.6 g/a; foliage treatment after growth of 14 days; 3 weeks after treatment
Text: as §12, §13

[27] = tested on: Beta vulgaris (beet); test: Herbicidal effect test by foliage treatment; format: in vivo; conditions: 1.6 g/a; foliage treatment after growth of 14 days; 3 weeks after treatment
Text: as §12, §13

[28] = tested on: Chenopodium album; test: Herbicidal effect test by foliage treatment; format: in vivo; conditions: 1.6 g/a; foliage treatment after growth of 14 days; 3 weeks after treatment
Text: as §12, §13

[29] = tested on: Digitaria adscendes; test: Herbicidal effect test by foliage treatment; format: in vivo; conditions: 1.6 g/a; foliage treatment after growth of 14 days; 3 weeks after treatment
Text: as §12, §13

[30] = tested on: Echinochloa crus-galli; test: Herbicidal effect test by foliage treatment; format: in vivo; conditions: 1.6 g/a; foliage treatment after growth of 14 days; 3 weeks after treatment
Text: as §12, §13

[31] = tested on: Polygonum blumei; test: Herbicidal effect test by foliage treatment; format: in vivo; conditions: 1.6 g/a; foliage treatment after growth of 14 days; 3 weeks after treatment
Text: as §12, §13

[32] = tested on: Setaria viridis; test: Herbicidal effect test by foliage treatment; format: in vivo; conditions: 1.6 g/a; foliage treatment after growth of 14 days; 3 weeks after treatment
Text: as §12, §13

[33] = tested on: Stellaria media; test: Herbicidal effect test by foliage treatment; format: in vivo; conditions: 1.6 g/a; foliage treatment after growth of 14 days; 3 weeks after treatment
Text: as §12, §13

[34] = tested on: Triticum aestivum (wheat); test: Herbicidal effect test by foliage treatment; format: in vivo; conditions: 1.6 g/a; foliage treatment after growth of 14 days; 3 weeks after treatment
Text: as §12, §13

[35] = tested on: corn (Zea mays); test: Herbicidal effect test by foliage treatment; format: in vivo; conditions: 1.6 g/a; foliage treatment after growth of 14 days; 3 weeks after treatment
Text: as §12, §13

[36] = tested on: soybean (Glycine max); test: Herbicidal effect test by foliage treatment; format: in vivo; conditions: 1.6 g/a; foliage treatment after growth of 14 days; 3 weeks after treatment
Text: as §12, §13

[37] = tested on: direct sown rice; test: Herbicidal effect test by foliage treatment; format: in vivo, Oryza sativa; conditions: 1.6 g/a; foliage treatment after growth of 14 days; 3 weeks after treatment
Text: as §12, §13

In the case of `COc1cc(OC)nc(NC(=O)NS(=O)(=O)c2c(C3=NOCC(C)(C)O3)c(Cl)nn2C)n1` [Compound 3, N-((4,6-dimethoxypyrimidin-2-yl)aminocarbonyl)-3-chloro-4-(5,5-dimethyl-5H,6H-1,4,2-dioxadin-3-yl)-1-methylpyrazole-5-sulfonamide], the “herbicidal effect, A: Echinochloa crus-galli” value [1] is reported as 5 (Herbicidal rate 90% or more (almost complete death)), the “herbicidal effect, C: Monochoria vaginalis” value [2] is reported as 5 (Herbicidal rate 90% or more (almost complete death)) and the “herbicidal effect, B: Scirpus juncoides” value [3] is reported as 5 (Herbicidal rate 90% or more (almost complete death)). The “herbicidal effect, A: Echinochloa crus-galli” value [4] was 5 (Herbicidal rate 90% or more (almost complete death)), the “herbicidal effect, C: Monochoria vaginalis” value [5] was 5 (Herbicidal rate 90% or more (almost complete death)) and the “herbicidal effect, B: Scirpus juncoides” value [6] was 5 (Herbicidal rate 90% or more (almost complete death)). The “herbicidal effect, H: Abutilon avicennae” value [7] was 5 (Herbicidal rate 90% or more (almost complete death)), the “herbicidal effect, J: Amaranthus retroflexus” value [8] was 4 (Herbicidal rate 70% or more and less than 90%) and the “herbicidal effect, I: Ambrosia elatior” value [9] was 5 (Herbicidal rate 90% or more (almost complete death)). The “herbicidal effect, F: Avena fatua” value [10] was 0 (Herbicidal rate 5% or less (little effect)), the “herbicidal effect, f: Beta vulgaris (beet)” value [11] was 4 (Herbicidal rate 70% or more and less than 90%) and the “herbicidal effect, G: Black-grass” value [12] was 3 (Herbicidal rate 40% or more and less than 70%). The “herbicidal effect, K: Chenopodium album” value [13] was 3 (Herbicidal rate 40% or more and less than 70%), the “herbicidal effect, D: Digitaria adscendes” value [14] was 2 (Herbicidal rate 20% or more and less than 40%) and the “herbicidal effect, A: Echinochloa crus-galli” value [15] was 2 (Herbicidal rate 20% or more and less than 40%). For the same compound, the “herbicidal effect, L: Polygonum blumei” value [16] was 5 (Herbicidal rate 90% or more (almost complete death)), the “herbicidal effect, E: Setaria viridis” value [17] was 0 (Herbicidal rate 5% or less (little effect)) and the “herbicidal effect, M: Stellaria media” value [18] was 5 (Herbicidal rate 90% or more (almost complete death)). The “herbicidal effect, e: Triticum aestivum (wheat)” value [19] was 0 (Herbicidal rate 5% or less (little effect)), the “herbicidal effect, b: corn (Zea mays)” value [20] was 3 (Herbicidal rate 40% or more and less than 70%) and the “herbicidal effect, c: soybean (Glycine max)” value [21] was 1 (Herbicidal rate 5% or more and less than 20%). The “herbicidal effect, d: direct sown rice” value [22] was 0 (Herbicidal rate 5% or less (little effect)), the “herbicidal effect, H: Abutilon avicennae” value [23] was 5 (Herbicidal rate 90% or more (almost complete death)) and the “herbicidal effect, J: Amaranthus retroflexus” value [24] was 0 (Herbicidal rate 5% or less (little effect)). The “herbicidal effect, I: Ambrosia elatior” value [25] was 5 (Herbicidal rate 90% or more (almost complete death)), the “herbicidal effect, F: Avena fatua” value [26] was 0 (Herbicidal rate 5% or less (little effect)) and the “herbicidal effect, f: Beta vulgaris (beet)” value [27] was 3 (Herbicidal rate 40% or more and less than 70%). For the same compound, the “herbicidal effect, K: Chenopodium album” value [28] was 2 (Herbicidal rate 20% or more and less than 40%), the “herbicidal effect, D: Digitaria adscendes” value [29] was 3 (Herbicidal rate 40% or more and less than 70%) and the “herbicidal effect, A: Echinochloa crus-galli” value [30] was 4 (Herbicidal rate 70% or more and less than 90%). The “herbicidal effect, L: Polygonum blumei” value [31] was 3 (Herbicidal rate 40% or more and less than 70%), the “herbicidal effect, E: Setaria viridis” value [32] was 2 (Herbicidal rate 20% or more and less than 40%) and the “herbicidal effect, M: Stellaria media” value [33] was 5 (Herbicidal rate 90% or more (almost complete death)). The “herbicidal effect, e: Triticum aestivum (wheat)” value [34] was 0 (Herbicidal rate 5% or less (little effect)), the “herbicidal effect, b: corn (Zea mays)” value [35] was 4 (Herbicidal rate 70% or more and less than 90%) and the “herbicidal effect, c: soybean (Glycine max)” value [36] was 5 (Herbicidal rate 90% or more (almost complete death)). For the same compound, the “herbicidal effect, d: direct sown rice” value [37] was 0 (Herbicidal rate 5% or less (little effect)).
